In ChEMBL document CHEMBL3745631, “Discovery of highly potent and selective Bruton's tyrosine kinase inhibitors: Pyridazinone analogs with improved metabolic stability” (Bioorg Med Chem Lett, 2016) one finds inhibition data, which are given here for one molecule.

Assay [1] deals with Serine/threonine-protein kinase MARK1 (Homo sapiens) (UniProt Q9P0L2). The assay can be described thus: Inhibition of MARK1 (unknown origin) at 1 uM.
Assay [2] concerns the target STE20-like serine/threonine-protein kinase (SLK) (Homo sapiens) (UniProt Q9H2G2). The assay can be described thus: Inhibition of SLK (unknown origin) at 1 uM.
The target in assay [3] is SRSF protein kinase 2 (Homo sapiens) (UniProt P78362). The assay can be described thus: Inhibition of SRPK2 (unknown origin) at 1 uM.
Assay [4] concerns the target Serine/threonine-protein kinase Chk1 (Homo sapiens) (UniProt O14757). The assay can be described thus: Inhibition of CHK1 (unknown origin) at 1 uM.
Assay [5] addresses Ribosomal protein S6 kinase beta-1 (Homo sapiens) (UniProt P23443). The experiment in a line: Inhibition of p70S6K (unknown origin) at 1 uM.
The target in assay [6] is Homeodomain-interacting protein kinase 4 (Homo sapiens) (UniProt Q8NE63). The assay can be described thus: Inhibition of HIPK4 (unknown origin) at 1 uM.
Homeodomain-interacting protein kinase 4 (Homo sapiens), sequence (Q8NE63 whole entry): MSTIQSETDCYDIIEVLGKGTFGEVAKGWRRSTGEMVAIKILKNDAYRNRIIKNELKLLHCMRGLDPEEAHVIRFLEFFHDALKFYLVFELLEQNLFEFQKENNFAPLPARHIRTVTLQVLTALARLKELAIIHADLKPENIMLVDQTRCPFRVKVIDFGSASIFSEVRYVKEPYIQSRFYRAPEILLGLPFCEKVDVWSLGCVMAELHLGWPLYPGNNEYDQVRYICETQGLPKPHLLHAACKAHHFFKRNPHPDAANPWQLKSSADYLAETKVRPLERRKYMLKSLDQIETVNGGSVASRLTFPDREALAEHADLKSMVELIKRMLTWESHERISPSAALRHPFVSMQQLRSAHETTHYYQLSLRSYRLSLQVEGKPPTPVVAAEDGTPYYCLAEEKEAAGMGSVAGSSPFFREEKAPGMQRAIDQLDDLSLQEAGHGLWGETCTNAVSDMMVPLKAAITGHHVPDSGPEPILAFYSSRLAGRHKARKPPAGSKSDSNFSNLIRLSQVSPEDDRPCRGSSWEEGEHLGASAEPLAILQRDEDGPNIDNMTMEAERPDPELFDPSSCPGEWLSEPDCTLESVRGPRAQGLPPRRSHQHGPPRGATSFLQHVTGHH
Assay [7] deals with Protein kinase C theta type (Homo sapiens) (UniProt Q04759). The experiment in a line: Inhibition of PKCtheta (unknown origin) at 1 uM.
Protein kinase C theta type (Homo sapiens), sequence (Q04759 whole entry, looked up): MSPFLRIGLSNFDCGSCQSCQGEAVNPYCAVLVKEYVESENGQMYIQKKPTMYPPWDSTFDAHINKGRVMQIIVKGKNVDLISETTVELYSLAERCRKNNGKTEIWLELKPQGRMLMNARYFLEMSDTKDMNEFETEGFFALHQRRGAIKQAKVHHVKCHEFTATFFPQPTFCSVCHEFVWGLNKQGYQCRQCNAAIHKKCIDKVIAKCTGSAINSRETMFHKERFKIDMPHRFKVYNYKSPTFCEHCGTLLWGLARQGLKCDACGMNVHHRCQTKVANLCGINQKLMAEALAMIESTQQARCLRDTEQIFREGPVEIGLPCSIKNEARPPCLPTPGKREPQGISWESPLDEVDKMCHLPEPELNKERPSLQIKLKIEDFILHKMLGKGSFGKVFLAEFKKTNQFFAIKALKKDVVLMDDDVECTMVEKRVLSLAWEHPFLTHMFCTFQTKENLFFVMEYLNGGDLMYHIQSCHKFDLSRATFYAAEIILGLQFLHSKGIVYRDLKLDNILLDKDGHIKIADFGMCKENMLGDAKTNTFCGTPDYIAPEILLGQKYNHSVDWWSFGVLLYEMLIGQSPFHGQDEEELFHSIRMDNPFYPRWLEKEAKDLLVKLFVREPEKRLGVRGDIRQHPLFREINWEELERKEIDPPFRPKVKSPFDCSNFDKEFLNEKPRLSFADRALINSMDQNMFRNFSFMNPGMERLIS
Assay [8] addresses Muscle, skeletal receptor tyrosine-protein kinase (Homo sapiens) (UniProt O15146). The assay can be described thus: Inhibition of MusK (unknown origin) at 1 uM.
Assay [9] has as its target Glycogen synthase kinase-3 alpha (Homo sapiens) (UniProt P49840). The assay can be described thus: Inhibition of GSK3 alpha (unknown origin) at 1 uM.
Assay [10] addresses Serine/threonine-protein kinase DCLK2 (Homo sapiens) (UniProt Q8N568). The experiment in a line: Inhibition of DCAMKL2 (unknown origin) at 1 uM.

Ribosomal protein S6 kinase beta-1 (Homo sapiens), sequence (P23443 whole entry, looked up): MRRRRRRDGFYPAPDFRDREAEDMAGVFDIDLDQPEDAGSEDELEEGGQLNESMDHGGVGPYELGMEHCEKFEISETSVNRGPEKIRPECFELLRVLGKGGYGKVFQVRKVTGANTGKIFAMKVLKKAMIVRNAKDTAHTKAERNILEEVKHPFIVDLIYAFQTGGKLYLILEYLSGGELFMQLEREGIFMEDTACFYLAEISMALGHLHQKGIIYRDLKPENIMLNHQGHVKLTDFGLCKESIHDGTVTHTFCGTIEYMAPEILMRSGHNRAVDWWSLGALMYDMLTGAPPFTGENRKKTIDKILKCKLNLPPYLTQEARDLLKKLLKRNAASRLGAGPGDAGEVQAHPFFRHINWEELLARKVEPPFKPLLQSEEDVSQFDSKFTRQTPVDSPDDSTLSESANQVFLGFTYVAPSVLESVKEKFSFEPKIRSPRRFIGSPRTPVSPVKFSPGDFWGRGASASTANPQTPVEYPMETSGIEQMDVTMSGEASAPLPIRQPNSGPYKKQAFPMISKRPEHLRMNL
Serine/threonine-protein kinase Chk1 (Homo sapiens), sequence (O14757 whole entry): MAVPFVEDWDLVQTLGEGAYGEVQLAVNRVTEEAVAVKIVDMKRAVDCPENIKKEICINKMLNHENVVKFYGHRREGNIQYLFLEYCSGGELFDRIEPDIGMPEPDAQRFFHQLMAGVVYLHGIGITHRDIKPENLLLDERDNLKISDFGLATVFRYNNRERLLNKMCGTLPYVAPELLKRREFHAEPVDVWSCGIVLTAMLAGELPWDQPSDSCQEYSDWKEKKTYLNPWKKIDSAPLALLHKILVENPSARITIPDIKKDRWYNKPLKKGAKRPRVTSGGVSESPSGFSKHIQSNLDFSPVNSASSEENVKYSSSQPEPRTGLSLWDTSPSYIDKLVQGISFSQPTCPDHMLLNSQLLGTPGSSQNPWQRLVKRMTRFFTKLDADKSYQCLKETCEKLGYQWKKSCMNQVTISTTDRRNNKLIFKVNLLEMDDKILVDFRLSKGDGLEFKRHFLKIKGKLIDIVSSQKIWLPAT
Serine/threonine-protein kinase MARK1 (Homo sapiens), sequence (Q9P0L2 whole entry, looked up): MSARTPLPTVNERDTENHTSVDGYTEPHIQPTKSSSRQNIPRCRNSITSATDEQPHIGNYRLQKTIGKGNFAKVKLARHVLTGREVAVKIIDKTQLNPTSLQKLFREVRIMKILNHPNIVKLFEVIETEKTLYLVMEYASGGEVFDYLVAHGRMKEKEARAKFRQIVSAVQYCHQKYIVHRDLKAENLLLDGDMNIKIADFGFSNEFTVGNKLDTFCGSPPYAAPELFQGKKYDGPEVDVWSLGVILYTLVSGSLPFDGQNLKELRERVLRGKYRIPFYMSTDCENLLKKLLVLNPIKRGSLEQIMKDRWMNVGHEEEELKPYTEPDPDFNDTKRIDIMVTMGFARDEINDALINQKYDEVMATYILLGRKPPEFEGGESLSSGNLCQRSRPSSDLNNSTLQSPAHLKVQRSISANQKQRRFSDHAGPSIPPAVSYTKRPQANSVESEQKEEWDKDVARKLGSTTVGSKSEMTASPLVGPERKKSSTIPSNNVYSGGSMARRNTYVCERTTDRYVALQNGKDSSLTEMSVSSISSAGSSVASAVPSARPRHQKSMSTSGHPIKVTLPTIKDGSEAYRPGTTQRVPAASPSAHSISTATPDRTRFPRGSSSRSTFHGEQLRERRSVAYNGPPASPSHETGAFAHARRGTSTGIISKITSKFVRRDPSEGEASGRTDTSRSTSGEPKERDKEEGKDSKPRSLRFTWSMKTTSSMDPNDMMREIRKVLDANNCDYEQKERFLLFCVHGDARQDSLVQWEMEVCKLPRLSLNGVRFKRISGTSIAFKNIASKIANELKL
Muscle, skeletal receptor tyrosine-protein kinase (Homo sapiens), sequence (O15146 whole entry): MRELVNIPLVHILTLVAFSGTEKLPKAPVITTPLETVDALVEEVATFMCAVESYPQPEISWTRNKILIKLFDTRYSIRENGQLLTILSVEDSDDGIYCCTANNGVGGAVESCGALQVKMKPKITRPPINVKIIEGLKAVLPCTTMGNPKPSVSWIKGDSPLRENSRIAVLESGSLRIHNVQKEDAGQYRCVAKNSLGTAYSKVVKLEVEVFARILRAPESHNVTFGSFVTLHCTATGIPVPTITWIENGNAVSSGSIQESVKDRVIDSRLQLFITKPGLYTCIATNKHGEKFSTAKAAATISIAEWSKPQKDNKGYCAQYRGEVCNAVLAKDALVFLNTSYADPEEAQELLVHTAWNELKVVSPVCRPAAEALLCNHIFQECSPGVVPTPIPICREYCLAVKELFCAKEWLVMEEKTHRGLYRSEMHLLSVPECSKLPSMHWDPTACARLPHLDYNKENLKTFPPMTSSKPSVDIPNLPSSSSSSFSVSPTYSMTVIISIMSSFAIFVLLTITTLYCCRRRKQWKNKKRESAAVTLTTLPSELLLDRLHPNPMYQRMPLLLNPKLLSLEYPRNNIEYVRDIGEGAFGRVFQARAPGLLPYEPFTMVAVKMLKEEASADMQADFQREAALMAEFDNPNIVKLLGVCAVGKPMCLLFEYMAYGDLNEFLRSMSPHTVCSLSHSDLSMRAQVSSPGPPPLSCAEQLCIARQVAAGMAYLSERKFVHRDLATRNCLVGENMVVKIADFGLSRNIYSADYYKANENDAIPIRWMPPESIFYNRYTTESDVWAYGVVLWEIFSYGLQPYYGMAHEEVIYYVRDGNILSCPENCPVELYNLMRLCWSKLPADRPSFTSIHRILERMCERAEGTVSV
Glycogen synthase kinase-3 alpha (Homo sapiens), sequence (P49840 2-483 limits assumed): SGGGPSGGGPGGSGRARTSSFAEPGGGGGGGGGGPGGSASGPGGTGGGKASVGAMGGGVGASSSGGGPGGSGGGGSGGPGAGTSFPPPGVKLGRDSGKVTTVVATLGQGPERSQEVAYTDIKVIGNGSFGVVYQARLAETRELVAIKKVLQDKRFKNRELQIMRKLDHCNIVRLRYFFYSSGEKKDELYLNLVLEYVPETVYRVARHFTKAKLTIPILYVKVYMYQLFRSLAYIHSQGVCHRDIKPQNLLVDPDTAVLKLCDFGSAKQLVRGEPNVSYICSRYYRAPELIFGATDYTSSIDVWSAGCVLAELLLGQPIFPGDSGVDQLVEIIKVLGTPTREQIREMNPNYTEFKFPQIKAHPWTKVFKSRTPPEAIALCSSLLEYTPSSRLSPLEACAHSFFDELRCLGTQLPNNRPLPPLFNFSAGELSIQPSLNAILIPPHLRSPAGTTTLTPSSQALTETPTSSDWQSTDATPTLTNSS

As for `Cc1c(-c2cc(Nc3cc4n(n3)CCN(C)C4)c(=O)[nH]n2)ccc(F)c1NC(=O)c1cc2ccccc2s1`, the inhibition is -4.7% in [1]; -3% in assay [2]; -2% in assay [3]; 4.8% in [4]; -2.8% in [5]; 7.8% in assay [6]. For the same molecule, the inhibition was -6.9% in assay [7], 1.4% in assay [8], 7.5% in [9] and -1.2% in assay [10].
